In paper PMC12030059, “Mechanistic Advances in the Therapeutic Application of Bixin for Lung Inflammation In Vitro and In Vivo” (Pharmaceuticals, 2025):

Columns and labels:
Type in all cases: cell-based
RAW 264.7 macrophages = experiment: MTT cell viability assay; conditions: 12.5 to 200 μM, 3 h of exposure
Experimental: RAW 264.7 cells were plated (5 × 10^4 cells/well) in a 96-well plate with DMEM and 10% FBS. When cells reached 90% confluence, the 10% (v/v) FBS DMEM was discarded and replaced with the stimuli. […] The metabolism of MTT by the cells was monitored by the formation of insoluble salts, which were then dissolved in isopropyl alcohol. Absorbance was read at 570 nm using a Varioskan LUX (ThermoFisher Scientific, Waltham, MA, USA). […] Cell viability was normalized in all groups by the control (1% (v/v) FBS DMEM), with 10% (v/v) FBS in DMEM used as the positive growth control.

RAW 264.7 cells = experiment: Wound healing migration assay; conditions: 24 h, mitomycin C pretreated; for cell migration (wound closure), compound alone: 200 μM, no stimulus; for cell migration induced by CSE: CSE 5% plus compound
Experimental: RAW 264.7 cells were seeded in a 24-well plate (4.0 × 10^5 cells/well) and cultured until maximum confluence. Cells were then treated with mitomycin C (5 μg/mL) in FBS-free DMEM for 2 h, followed by washing with PBS. A linear scratch was made with a 200 μL pipette tip in each well. Cells were then stimulated for 24 h with the stimuli diluted in DMEM supplemented with 1% (v/v) FBS. Wound closure was monitored by capturing images at 0 and 24 h. The area of wound closure in each image was measured at five different points using a ruler tool, and an average was calculated for each image and condition. Cell migration was quantified as the percentage of wound closure at 24 h compared to the area at 0 h for each group.

[1] = tested on: F-actin in RAW 264.7 cells; experiment: F-actin polymerization assay; conditions: 200 μM, alone and in the presence of 5% CSE
Experimental: RAW 264.7 cells were seeded in a 24-well plate (2.5 × 10^5 cells/well) and stimulated as previously described. After reaching 70% confluence, cells were blocked with 5% (w/v) BSA for 1 h and washed three times in PBS-Tween 20 (0.1% (v/v)). The supernatants were replaced with ActinRed (ThermoFisher Scientific, Waltham, MA, USA) for 30 min, followed by washing and incubation with DAPI for 5 min. After the final wash, DMEM FluoroBrite was added, and fluorescence was analyzed using the EVOS inverted microscope (ThermoFisher Scientific, Waltham, MA, USA).

[2] = tested on: p-p65 NF-κB in RAW 264.7 cells; experiment: Immunocytochemistry for p-p65 nuclear translocation; conditions: for nuclear p-p65 (green fluorescence colocalized with DAPI), compound alone: 200 μM, no stimulus; for p-p65 NF-κB nuclear translocation in cells stimulated with CSE: 5% CSE then compound 200 μM
Experimental: RAW 264.7 cells were seeded in a 24-well plate (2.5 × 10^5 cells/well) and stimulated as previously described. After reaching 70% confluence, cells were blocked with 5% (w/v) BSA for 1 h, then washed three times in PBS-Tween 20 (0.1% (v/v)). The supernatants were replaced with a solution containing the primary antibody against p-p65 (#3033-rabbit-1:500) (Cell Signaling Technology, Danvers, MA, USA) diluted in PBS-T with 1% (w/v) BSA and incubated overnight. After incubation, cells were incubated for 1 h with a secondary antibody conjugated to Alexa Fluor-488 (1:1000; ThermoFisher Scientific, Waltham, MA, USA). Cells were then washed three times with PBS-T and incubated with DAPI for 5 min. After the final wash, DMEM FluoroBrite was added, and fluorescence was analyzed using the EVOS inverted microscope (ThermoFisher Scientific, Waltham, MA, USA). Images were captured at 20× magnification from at least 10 fields for each experimental condition, and fluorescence intensity was quantified.

ICAM-1 = experiment: Western blotting, ICAM-1 expression; conditions: RAW 264.7, 200 μM following CSE 5% exposure
Experimental: (§1) The RAW 264.7 macrophage cell lines were cultured in DMEM supplemented with 10% (v/v) FBS, pH 7.2, at 37 °C in a humidified atmosphere with 5% CO2. RAW 264.7 cells were plated in a 24-well plate (3.5 × 10^5 cells/well) in DMEM with 1% (v/v) FBS and left overnight to adhere. […]
(§2) Cells were lysed in RIPA buffer containing […]™ Protease Inhibitor and 1 mM sodium orthovanadate. Samples were then analyzed using the bicinchoninic acid (BCA) method (BCA Protein Assay Kit). Standard curves with known albumin concentrations (0–2 mg/mL) were used. The working solution was prepared according to the manufacturer’s instructions. For protein quantification, 10 μL of the sample was mixed with 100 μL of the working solution, and the same procedure was performed for each point on the standard curve in a 96-well plate. […] Absorbance was read at 565 nm using a Varioskan LUX spectrophotometer (ThermoFisher Scientific, Waltham, MA, USA).
(§3) Cell lysates (10–20 μg of protein) were separated by SDS-PAGE (sodium dodecyl sulfate polyacrylamide gel for electrophoresis) (8 or 12% polyacrylamide) and transferred (25 V, 1.0 A, 30 min—Trans-Blot Turbo Transfer System, Bio-Rad—São Paulo, Brazil) to a PVDF membrane. […] Densitometry was quantified using ImageJ software v. […] Results are expressed as densitometric values for each protein normalized to β-actin.

NOS2 = experiment: Western blotting, NOS2 expression; conditions: RAW 264.7, 200 μM, CSE 5%
Experimental: as §1, §2, §3

Row | Molecule | cell viability (RAW 264.7 macrophages) | cell migration (wound closure), compound alone (RAW 264.7 cells) | cell migration induced by CSE (RAW 264.7 cells) | F-actin labeling (MFI) [1] | nuclear p-p65 (green fluorescence colocalized with DAPI), compound alone [2] | p-p65 NF-κB nuclear translocation in cells stimulated with CSE [2] | ICAM-1 expression (ICAM-1/β-actin) (ICAM-1) | NOS2 expression (NOS2/β-actin) (NOS2)
1 | COC(=O)/C=C/C(C)=C\C=C\C(C)=C\C=C\C=C(C)\C=C\C=C(C)\C=C\C(=O)O [HBx, (2E,4E,6E,8E,10E,12E,14E,16Z,18E)-20-methoxy-4,8,13,17-tetramethyl-20-oxoicosa-2,4,6,8,10,12,14,16,18-nonaenoic acid] | did not affect cell viability | no migration occurred | completely inhibited | maintained F-actin at control levels | do not display a significant increase in green fluorescence intensity | prevent p-p65 NF-κB nuclear translocation | reduced ICAM-1 expression | reduced it
2 | potassium bixinate [KBx] | did not affect cell viability | no migration occurred | completely inhibited | maintained F-actin at control levels | do not display a significant increase in green fluorescence intensity | prevent p-p65 NF-κB nuclear translocation | reduced ICAM-1 expression | reduced it
